Data as given in PMC9181938, “Fluorinated Analogues of Lepidilines A and C: Synthesis and Screening of Their Anticancer and Antiviral Activity” (Molecules, 2022).
Where two headings read alike, the source gives them in different places.

Tests used:
Vero cells = experiment: Cytotoxicity screening at 10 µM (MTT); type: cell-based, Cercopithecus aethiops; settings: 48 h
[1] = system: Encephalomyocarditis virus (EMCV); experiment: Antiviral screening at 10 µM; type: cell-based; settings: EMCV-infected cells
Experimental: (§1) Antiviral properties of compounds 1a, 1c, 1a[PF6], 1c[PF6], 9b[PF6], 9c[PF6], 10a–10d, 2a, and 2b were assessed against five viruses: Human herpesvirus 1 (HSV-1, VR-539), Human parainfluenza virus type 3 (HPIV-3, VR-93), Human adenovirus 5 (AdV5, VR-5), Human herpesvirus 5 (HCMV, VR-977), and Encephalomyocarditis virus (EMCV, VR-1479). Viruses were purchased from the American Type Culture Collection (ATCC, Manassas, VA, USA).
(§2) All tested compounds were dissolved in DMSO (dimethyl sulfoxide, Sigma-Aldrich, Darmstadt, Germany) and then suspended in Minimum Essential Medium (MEM; Sigma-Aldrich, Darmstadt, Germany) supplemented with 2% heat-inactivated fetal bovine serum (FBS; Sigma-Aldrich, Darmstadt, Germany), 2 mM L-glutamine (Sigma-Aldrich, Darmstadt, Germany), and 100 units/mL penicillin G with […] streptomycin (Sigma-Aldrich, Darmstadt, Germany).
(§3) Vero, LLC-MK2, NCTC clone 929, MRC-5, and HeLa cells were propagated in Minimum Essential Medium (MEM; Sigma-Aldrich, Darmstadt, Germany) supplemented with 10% heat-inactivated fetal bovine serum (FBS; Sigma-Aldrich, Darmstadt, Germany) and 100 units/mL penicillin G with […] streptomycin (Sigma-Aldrich, Darmstadt, Germany). Upon reaching 80–90% confluency, cells were harvested with 0.25% trypsin in 1 mM EDTA (Life Technologies, Warsaw, Poland) and seeded onto 96-well microplates at 2 × 10^5 cells/mL. After overnight incubation of cells at 37 °C in a humidified atmosphere containing 5% CO2, the culture medium was removed, and cells were inoculated with the respective virus solution in MEM supplemented with 2% FBS and antibiotics (HSV-1 MOI 0.005, 1000 virions/mL; HPIV-3 MOI 0.01, 2000 virions/mL; AdV5 MOI 0.005, 1000 virions/mL, EMCV MOI 0.005, 1000 virions/mL, HCMV 20 PFU (plaque forming units) per well). After a 1-h (HSV-1, HPIV-3, AdV5, and EMCV) or 2-h adsorption period (HCMV), the residual virus was removed, and the infected cells were further incubated with a 100 μL freshly prepared solution of tested compounds diluted with a maintenance medium supplemented with 2% FBS to obtain compound concentrations of 10 µM. The final concentration of DMSO in the medium was 0.1%. All experiments were carried out in triplicate. The cells monolayers were incubated with the compounds at 37 °C in a humidified atmosphere containing 5% CO2 until the typical cytopathic effect (CPE) was visible. Viral infection was evaluated by the MTT assay or plaque reduction assay (HCMV). After incubation with drugs, the cells were treated with 3-(4,5-dimethylthiazol-2-yl)-2,5-diphenyltetrazolium bromide dye solution (MTT, Sigma-Aldrich, Darmstadt, Germany) (25 μL, 5 mg/mL) for 2 h and lysed with solvent solution (100 μL) containing: DMF (Sigma-Aldrich, Darmstadt, Germany) (45 mL), SDS (Sigma-Aldrich, Darmstadt, Germany) (13.5 g), and distilled water (55 mL). After overnight incubation at 37 °C, the optical density at 550 nm and a reference wavelength of 670 nm were measured on a microplate spectrophotometer, Varioskan Lux (Thermo Fisher Scientific, Waltham, MA, USA). The number of HCMV plaques was counted under an inverted microscope Olympus IX73 (Olympus, Tokyo, Japan).

[2] = system: Human parainfluenza virus type 3 (HPIV-3); experiment: Antiviral screening at 10 µM; type: cell-based; settings: antiviral screening, HPIV-3-infected cells
Experimental: as §1, §2, §3

[3] = system: Human adenovirus 5 (AdV5); experiment: Antiviral screening at 10 µM; type: cell-based; settings: AdV5-infected cells
Experimental: as §1, §2, §3

[4] = system: Human herpesvirus 1 (HSV-1); experiment: Antiviral screening at 10 µM; type: cell-based; settings: antiviral screening, HSV-1-infected cells
Experimental: as §1, §2, §3

LLC-MK2 cells [5] = experiment: Cytotoxicity MTT assay (0.1–1000 µM), CC50; type: cell-based, Macaca mulatta
HeLa cells = experiment: Cytotoxicity screening at 10 µM (MTT); type: cell-based, Human; settings: 48 h
NCTC clone 929 cells = experiment: Cytotoxicity screening at 10 µM (MTT); type: cell-based, Mus musculus; settings: 48 h
[6] = system: Human parainfluenza virus type 3 (HPIV-3); experiment: Antiviral activity assay (0.1–1000 µM), IC50; type: cell-based; settings: Table S4, range 0.1-1000 µM, HPIV-3; read-out: IC50 (M) HPIV-3
Experimental: as §1, with “1e–1g, 1e[PF6], 8a–8d,” for “1a, 1c, 1a[PF6], 1c[PF6], 9b[PF6], 9c[PF6], 10a–10d, 2a,”, “9a” for “2b”
as §2
Investigated cells were propagated in Minimum Essential Medium (MEM; Sigma-Aldrich, Darmstadt, Germany) supplemented with 10% heat-inactivated fetal bovine serum (FBS; Sigma-Aldrich, Darmstadt, Germany) and 100 units/mL penicillin G with […] streptomycin (Sigma-Aldrich, Darmstadt, Germany). After reaching 80–90% confluency, cells were harvested with trypsin (Life Technologies, Warsaw, Poland) and seeded into 96-well microplates at 2 × 10^5 cells/mL after overnight incubation of cells at 37 °C in a humidified atmosphere containing 5% CO2.
The culture medium was removed from confluent cells grown in 96-well microplates, and the cells were inoculated with virus solutions in MEM supplemented with 2% FBS and antibiotics (HSV-1 MOI 0.005, 1000 virions/mL; HPIV-3 MOI 0.01, 2000 virions/mL; AdV5 MOI 0.005, 1000 virions/mL; EMCV 0.005, 1000 virions/mL; HCMV 20 PFU/well (plaque-forming units per well). After a 1-h (HSV-1, HPIV-3, AdV5, and EMCV) or 2-h adsorption period (HCMV), residual viral particles were removed, and infected cells were further incubated with MEM supplemented with 2% FBS containing compound concentrations in the range from 0.1 to 1000 µM [38]. All experiments were carried out in triplicate. The cell monolayers were incubated with the investigated compounds at 37 °C in a humidified atmosphere containing 5% CO2 until a cytopathic effect (CPE) was visible. Viral infection was evaluated by the MTT assay (as described previously) or plaque reduction assay. HCMV plaques were counted under an inverted microscope, Olympus IX73 (Olympus, Tokyo, Japan). Antiviral activity was expressed as the concentration required to reduce the number of viral plaques to 50% of the control (virus-infected but untreated).

LLC-MK2 cells [7] = experiment: Cytotoxicity screening at 10 µM (MTT); type: cell-based, Macaca mulatta; settings: 48 h
MRC-5 cells = experiment: Cytotoxicity screening at 10 µM (MTT); type: cell-based, Human; settings: 48 h
[8] = LLC-MK2, MTT, 48 h, read-out: CC50 Normal Cell Lines LLC-MK2
[9] = Table S2, range 0.1-1000 µM, LLC-MK2, read-out: Cell line (CC50 M) LLC-MK2

Row | Structure (SMILES) | Cell line (viability %) Vero (Vero cells) [%] | Cell line (viability %) EMCV [1] [%] | Cell line (viability %) HPIV-3 [2] [%] | Cell line (viability %) AdV5 [3] [%] | Cell line (viability %) HSV-1 [4] [%] | CC50 (LLC-MK2 cells [5]; [8]) [µM] | CC50 (LLC-MK2 cells [5]; [9]) [µM] | Cell line (viability %) HeLa (HeLa cells) [%] | Cell line (viability %) NCTC clone 929 (NCTC clone 929 cells) [%] | IC50 [6] [M] | Cell line (viability %) LLC-MK2 (LLC-MK2 cells [7]) [%] | Cell line (viability %) MRC-5 (MRC-5 cells) [%]
1 | Cc1c(C)[n+](Cc2ccccc2)cn1Cc1ccccc1 [1a[PF6]] | 89.0 | 7.8 | 62.4 | 15.3 | 17.5 | < 80 | 32.7 ± 6.81 | 23.4 | 56.2 | > 3.27e-05 | 90.3 | 78.6
2 | COc1cccc(Cn2c[n+](Cc3ccccc3)c(C)c2C)c1 [1c[PF6]] | 91.3 | 7.9 | 91.1 | 17.1 | 23.3 | < 80 | 75.3 ± 5.51 | 11.4 | 8.5 | > 7.53e-05 | 55.6 | 76.9
